US11021455B2, “Brominated furanone derivative, method for preparing same, and pharmaceutical composition containing same as active ingredient” (SEOUL NATIONAL UNIVERSITY R&DB FOUNDATION, priority 2016, dated 2021)
Read-outs that look alike come from different tables or passages of the source.

Key:
[1] = test system: biofilms of F. nucleatum, givalis and T. forsythia; experiment: Biofilm morphology, confocal scanning laser microscope technique; type: cell-based; conditions: live/dead staining; FIG. 22
Description: (§1) Particularly, a sterilized cover glass slip (round shape with a radius of 12 mm) was placed on each well of a cell culture plate (24 well plate) by using a pincette. F. nucleatum A1-2 was added to cell culture medium (BHI medium+supplements) at the volume of 10% by the total volume.
(§2) The compounds of examples of the present invention were diluted to make the final concentration of each compound of 2 μM, 0.2 μM and 0.02 μM (BH1 medium: Brain Heart Infusion Medium, supplements: hemin (10 μg/ml) and vitamin K (0.2 μg/ml)).
(§3) The prepared culture solution was added to each well of the plate where the glass slip was placed, and the desired number of bacteria was inoculated into each well (F. nucleatum: 2×10^7 cells/ml, P. gingivalis: 4×10^8 cells/ml, T. forsythia: 2×10^8 cells/ml).
(§4) The prepared well plate was incubated at 37° C. under anaerobic condition (10% H2, 10% CO2 and 80% N2) for 48 hours for the culture of bacteria. The biofilm formed on the glass slip by the bacteria cultured in each group was quantitatively and comparatively analyzed using the following techniques.
The glass slip whereon biofilm had been formed was stained by using a live/dead-BacLight bacterial viability kit (Invitrogen, Grand Island, N.Y., USA), and the morphology of the biofilm was observed under a confocal scanning laser microscope and compared.

P. gingivalis biofilm = experiment: Inhibition of biofilm formation, crystal violet staining (OD595); type: cell-based; conditions: 2000 nM, 200 nM and 20 nM; FIG. 21
Description: (§5) Particularly, a sterilized cover glass slip (round shape with a radius of 12 mm) was placed on each well of a cell culture plate (24 well plate) by using a pincette. F. nucleatum A1-2 was added to cell culture medium (BHI medium+supplements) at the volume of 10% by the total volume. The compounds of examples of the present invention were diluted to make the final concentration of each compound of 2 μM, 0.2 μM and 0.02 μM (BH1 medium: Brain Heart Infusion Medium, supplements: hemin (10 μg/ml) and vitamin K (0.2 μg/ml)). The prepared culture solution was added to each well of the plate where the glass slip was placed, and the desired number of bacteria was inoculated into each well (F. nucleatum: 2×10^7 cells/ml, P. gingivalis: 4×10^8 cells/ml, T. forsythia: 2×10^8 cells/ml). For the positive control not treated with the compounds of examples of the present invention (F.n AI-2), F. nucleatum AI-2 was added to the cell culture medium (BHI+supplements) and then the same number of cells was inoculated. In the meantime, for the negative control treated neither the compound of the present invention nor F. nucleatum A1-2 (Fn), PBS was added to the cell culture medium (BHI+supplements) instead of F. nucleatum A1-2 at the same volume as the above. The prepared well plate was incubated at 37° C. under anaerobic condition (10% H2, 10% CO2 and 80% N2) for 48 hours for the culture of bacteria. The biofilm formed on the glass slip by the bacteria cultured in each group was quantitatively and comparatively analyzed using the following techniques. […] 200 μl of the decolorizing solution containing crystal violet was added to each well of the microplate, and OD595 was measured using a microplate reader (Microplate reader, Model 550, Bio-Rad, USA). The measured values were compared among the groups (As the biofilm formation increased by the molecules secreted by F. nucleatum was suppressed by the compound of the present invention, the measured value was decreased.).

F. nucleatum biofilm = experiment: as above; type: cell-based; conditions: 20 nM; compared with furanone treated control group; FIG. 20
Description: as §5

[2] = test system: IL-6 and IL-8 genes in THP-1 cells; experiment: Effect on host cell immunity: IL-6 and IL-8 gene expression by real-time RT-PCR in THP-1 cells; type: cell-based, human
Description: (§6) To evaluate the effect of the compounds of the present invention on host cell (normal cell) immunity, the host cells were treated with the compounds of the present invention, followed by investigation of the activity of proinflammatory cytokines in host cells.
(§7) Particularly, in order to investigate whether or not the compounds of the present invention were able to induce inflammatory responses in host cells, the expression levels of proinflammatory cytokines including interleukin (IL)-6 and IL-8 were measured by real-time RT-PCR. THP-1 cells (1×10^6 cells/well) and HGF cells (2×10^5 cells/well) were distributed in a 6 well plate, followed by culture in the presence or absence of the compounds of examples (5, 6 and 13) or lipopolysaccharide (LPS, 1 mg) known as an endotoxin of Gram negative bacteria that causes a strong immune response in host cells at 37° C. for 24 hours. Upon completion of the 24 hour culture, RNA was extracted from the THP-1 and HGF cells by using Easy-Blue total RNA extraction kit (iNtRON Biotechnology, Seongnam, Korea) according to the manufacturer's protocol. A cDNA sample ([…]) synthesized from the extracted RNA ([…]) using MMLV reverse transcription kit (Promega, Madison, Wis.) was added to each primer pair (10 pM) and Power SYBR Green Master Mix (Applied Biosystems, Warrington, UK) at the reaction volume of […]. The mixture was applied to ABI PRISM 7500 Fast Real-Time PCR system (Applied Biosystems, Foster City, Calif., USA) by using thermocycling (thermocycling: denaturation at 95° C. for 15 seconds, annealing and extension at 60° C. for 1 minute). Glyceraldehyde 3-phosphate dehydrogenase (GAPDH) gene was used as a reference gene to normalize the gene expression levels of inflammatory cytokines including interleukin 6 (IL-6) and interleukin 8 (IL-8).

[3] = test system: biofilm formation of bacteria; experiment: Evaluation of inhibition of biofilm formation (overall statements); type: cell-based; conditions: FIG. 20 to FIG. 21; 2000 nM, 200 nM and 20 nM
Description: as §1, §2, §3, §4
The glass slip whereon biofilm had been formed was stained with 1% crystal violet solution for 10 minutes, followed by washing with PBS (phosphate buffered saline) three times, and decolorized with acetone-alcohol.
200 μl of the decolorizing solution containing crystal violet was added to each well of the microplate, and OD595 was measured using a microplate reader (Microplate reader, Model 550, Bio-Rad, USA). The measured values were compared among the groups (As the biofilm formation increased by the molecules secreted by F. nucleatum was suppressed by the compound of the present invention, the measured value was decreased.).

[4] = test system: IL-6 and IL-8 genes in HGF cells; experiment: Effect on host cell immunity: IL-6 and IL-8 gene expression by real-time RT-PCR in HGF cells; type: cell-based, human
Description: as §6, §7

O=C1OC(=C(Br)Br)c2ccccc21 [Example 2, 3-(dibromomethylene)isobenzofuran-1(3H)-one]
inhibition of biofilm formation seen in confocal photographs [1]: inhibited the biofilm formation of bacteria

O=C1OC(=C(Br)Br)C2=C1CCCC2 [Example 3, 3-(dibromomethylene)-4,5,6,7-tetrahydroisobenzofuran-1(3H)-one]
P. gingivalis biofilm inhibitory activity (OD595) (P. gingivalis biofilm): excellent P. gingivalis biofilm inhibitory activity

O=C1OC(=C(Br)Br)C2=C1CCC2 [Example 4, 3-(dibromomethylene)-5,6-dihydro-3H-cyclopenta[c]furan-1(4H)-one]
F. nucleatum biofilm inhibitory activity (OD595) (F. nucleatum biofilm): superior F. nucleatum biofilm inhibitory activity at the concentration of 20 nM to the furanone treated control group
inhibition of biofilm formation seen in confocal photographs [1]: inhibited the biofilm formation of bacteria

O=C1OC(=C(Br)Br)C2CCCC12 (stereo not shown) [Example 5, 3-(dibromomethylene)-hexahydrocyclopenta[c]furan-1(3H)-one]
induction of IL-6 and IL-8 gene expression (inflammatory response) in THP-1 cells [2]: not to induce inflammatory responses
biofilm inhibitory activity (general statement) [3]: particularly excellent in inhibiting biofilm formation
F. nucleatum biofilm inhibitory activity (OD595) (F. nucleatum biofilm): superior F. nucleatum biofilm inhibitory activity at the concentration of 20 nM to the furanone treated control group
induction of IL-6 and IL-8 gene expression (inflammatory response) in HGF cells ([4]; human, 24 h): did not induce the expressions of IL-6 and IL-8 genes

Cc1ccc2c(c1)C(=C(Br)Br)OC2=O [Example 6, 3-(dibromomethylene)-5-methylisobenzofuran-1(3H)-one]
induction of IL-6 and IL-8 gene expression (inflammatory response) in THP-1 cells [2]: not to induce inflammatory responses
biofilm inhibitory activity (general statement) [3]: particularly excellent in inhibiting biofilm formation
induction of IL-6 and IL-8 gene expression (inflammatory response) in HGF cells ([4]; human, 24 h): did not induce the expressions of IL-6 and IL-8 genes

Cc1cccc2c1C(=O)OC2=C(Br)Br [Example 13, 3-(dibromomethylene)-7-methylisobenzofuran-1(3H)-one]
induction of IL-6 and IL-8 gene expression (inflammatory response) in THP-1 cells [2]: not to induce inflammatory responses
biofilm inhibitory activity (general statement) [3]: particularly excellent in inhibiting biofilm formation
induction of IL-6 and IL-8 gene expression (inflammatory response) in HGF cells ([4]; human, 24 h): did not induce the expressions of IL-6 and IL-8 genes

lipopolysaccharide [LPS, reference compound]
induction of IL-6 and IL-8 gene expression (inflammatory response) in THP-1 cells ([2]; 24 hours, normalised to GAPDH, FIG. 26): induced the expressions of IL-6 and IL-8 genes
induction of IL-6 and IL-8 gene expression (inflammatory response) in HGF cells ([4]; 24 hours, normalised to GAPDH, FIG. 27): induced the expressions of both cytokines
